Measurements: patent US11351168B1 (Celgene CAR LLC, priority 2008, dated 2022)

Experiments:
[1] = test system: BTK signaling in Ramos cells; assay: BTK Ramos cellular assay (phosphorylation of BTK substrate PLCγ2); assay type: cell-based, human; conditions: Homo sapiens, 1 hour compound, anti-IgM stimulation, read-out: BTK Inhibition (Ramos cellular)
Outline: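 Serum-starved Ramos Burkitt lymphoma cells treated 1 h with compound at 1, 0.1, 0.01 or 0.001 μM final. B-cell receptor stimulated with 1 μg anti-human IgM F(ab′)2, 10 min on ice. Lysates (16 μg protein) immunoblotted for phospho-PLCγ2.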

BTK = BTK (Homo sapiens (Human), UniProt Q06187); assay: Mass spectrometry for BTK (intact protein); assay type: binding; conditions: 1 hr, 10× fold excess of compound
Method: Mass Spectrometry for BTK
Intact BTK was incubated for 1 hr at a 10× fold excess of I-7 to protein. Aliquots (2 μl) of the samples were diluted with 10 μl of 0.1% TFA prior to micro C4 ZipTipping directly onto the MALDI target using Sinapinic acid as the desorption matrix (10 mg/ml in 0.1% TFA:Acetonitrile 20:80).

BTK in Ramos cells = BTK in Ramos cells (Homo sapiens (Human), UniProt Q06187); assay: BTK occupancy from in vitro samples by ELISA (Ramos cells); assay type: cell-based; conditions: ELISA with probe I-215
From the text: Measuring BTK Occupancy from In Vitro Samples by ELISA
In order to determine the amount of free BTK in cell or tissue lysates, an ELISA protocol was employed that utilizes a biotinylated probe compound that binds only to free, unoccupied BTK. The conjugated biotin is captured on a streptavidin-coated ELISA plate and detected with a mouse anti-BTK antibody (Becton Dickinson, Franklin Lakes, N.J., USA) and a secondary goat anti-mouse HRP antibody (Zymed, South San Francisco, Calif., USA).
All samples were prepared with equal concentrations of Biorad lysis buffer (Hercules, Calif., USA), 0.5% bovine serum albumin in PBS with 0.05% Tween-20 to give a final concentration of 1 μM I-215. Samples were incubated in a mixing plate for 1 hr at room temperature while shaking to allow probe compound I-215 to bind to free BTK. After incubation with I-215, samples were added to a washed, streptavidin-coated ELISA plate (Pierce, Rockford, Ill., USA) and incubated for 1 hr at room temperature while shaking. The plate was then washed with PBS containing 0.05% Tween-20 using an automatic plate washer. Anti-BTK antibody was prepared at 1:1000 dilution in 0.5% BSA in PBS (0.05% Tween-20) and added to the ELISA plate. The plate was incubated for 1 hr at room temperature while shaking. The plate was washed as described above and the secondary HRP antibody was prepared at 1:5000 dilution in 0.5% BSA in PBS (0.05% Tween-20). The plate was incubated and washed as described above. TMB was added to the plate, and OD650 was monitored until reaching 1 OD unit. The reaction was then stopped with addition of H2SO4. The plate was analyzed using Gen 5 software, and a 4 Parameter Logistic curve was employed to quantitate samples. Recombinant BTK (Invitrogen, Carlsbad, Calif., USA) was used for the standard curve.
A concentration designated as “A” is greater than 1 nM; a concentration designated as “B” is greater than 10 nM; and a concentration designated as “C” is greater than 50 nM.

JAK3 kinase = JAK3 kinase (Homo sapiens (Human), UniProt P52333); assay: Mass spectrometry for Janus-3 kinase (JAK3); assay type: binding; conditions: 3 hrs at 10× excess, tryptic digestion
Method: Mass Spectrometry for Janus-3 Kinase (JAK3)
(§1) JAK3 kinase (33 pmols; Invitrogen) was incubated with (I-7) (327 pmols) for 3 hrs at 10× excess prior to tryptic digestion. Iodoacetamide was used as the alkylating agent after compound incubation. For tryptic digests a 5 ul aliquot (5.5 pmols) was diluted with 15 ul of 0.1% TFA prior to micro C18 Zip Tipping directly onto the MALDI target using alpha cyano-4-hydroxy cinnamic acid as the matrix (5 mg/ml in 0.1% TFA:Acetonitrile 50:50).
(§2) For tryptic digests the instrument was set in Reflectron mode with a pulsed extraction setting of 2200. Calibration was done using the Laser Biolabs Pep Mix standard ([…], 1296.69, 1672.92, 2093.09, 2465.20). For CID/PSD analysis the peptide was selected using cursors to set ion gate timing and fragmentation occurred at a laser power about 20% higher and He was used as the collision gas for CID. Calibration for fragments was done using the P14R fragmentation calibration for the Curved field Reflectron.

[2] = test system: BTK kinase activity (PLCγ2 phosphorylation) in Ramos cells; assay: Washout experiment with Ramos cells; assay type: cell-based, human; conditions: 100 nM compound for 1 hour, then washout
Method: Washout Experiment with Ramos Cells
Ramos cells were serum starved for one hour in RPMI media+1% glutamine at 37° C. After starvation, Ramos cells were treated with 100 nM compound diluted in serum free RPMI media for 1 hour. After compound treatment, the media was removed and cells were washed with compound-free media. Subsequently, Ramos cells were washed every 2 hours and resuspended in fresh compound-free media. Cells were collected at specified timepoints, treated with 1 ug anti-human IgM (Southern Biotech cat #2022-01) for 10 minutes on ice to induce BCR signaling and then washed in PBS. Ramos cells were then lysed in Cell Extraction Buffer (Invitrogen FNN0011) supplemented with Roche complete protease inhibitor tablets (Roche 11697498001) and phosphatase inhibitors (Roche 04 906 837 001) and 18 ug total protein lysate was loaded in each lane. Inhibition of BTK kinase activity was assayed by measuring its substrate (PLCγ2) phosphorylation by western blot with phospho-specific antibodies from Cell Signaling Technologies cat #3871. The results of this experiment with compounds I-2, I-4 and I-7 are depicted in FIGS. 1, 2 and 3.

TEC kinase = TEC kinase (Homo sapiens (Human), UniProt P42680); assay: Mass spectrometry for TEC kinase (tryptic digest); assay type: binding; conditions: 3 hrs at 10× excess, tryptic digestion
Method: Mass Spectrometry for TEC Kinase (Compound I-2)
as §1, with “TEC” for “JAK3”, “(45” for “(33”, “(I-2) (450” for “(I-7) (327”, “incubation. […]” for “incubation.”, “(7.5” for “(5.5”
as §2
as §1, with “TEC” for “JAK3”, “(45” for “(33”, “(I-4) (450” for “(I-7) (327”, “incubation. […]” for “incubation.”, “(7.5” for “(5.5”
as §2, with “1800.” for “2200.”
TEC kinase (45 pmols; Invitrogen) was incubated with […] (450 pmols) for 3 hrs at 10× excess prior to tryptic digestion. […]

BTK, sequence (Q06187 whole entry): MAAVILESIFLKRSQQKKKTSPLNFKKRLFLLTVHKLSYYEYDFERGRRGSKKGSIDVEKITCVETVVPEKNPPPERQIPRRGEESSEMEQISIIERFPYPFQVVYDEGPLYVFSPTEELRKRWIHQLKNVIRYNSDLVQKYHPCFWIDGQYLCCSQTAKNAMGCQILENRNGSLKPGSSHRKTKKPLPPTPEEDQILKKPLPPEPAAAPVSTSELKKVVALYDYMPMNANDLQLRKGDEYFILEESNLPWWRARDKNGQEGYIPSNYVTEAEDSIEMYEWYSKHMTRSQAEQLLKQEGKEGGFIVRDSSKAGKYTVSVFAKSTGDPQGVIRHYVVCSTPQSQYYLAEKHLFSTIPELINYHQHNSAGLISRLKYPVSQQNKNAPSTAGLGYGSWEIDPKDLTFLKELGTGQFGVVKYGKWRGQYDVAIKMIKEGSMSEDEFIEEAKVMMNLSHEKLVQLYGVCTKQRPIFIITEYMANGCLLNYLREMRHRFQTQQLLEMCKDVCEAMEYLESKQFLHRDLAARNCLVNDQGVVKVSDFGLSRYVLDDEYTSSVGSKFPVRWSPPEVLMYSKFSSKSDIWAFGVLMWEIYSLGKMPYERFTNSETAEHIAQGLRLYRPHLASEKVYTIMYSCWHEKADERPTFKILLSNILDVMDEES
BTK in Ramos cells, sequence (Q06187 whole entry): as above
TEC kinase, sequence (P42680 whole entry): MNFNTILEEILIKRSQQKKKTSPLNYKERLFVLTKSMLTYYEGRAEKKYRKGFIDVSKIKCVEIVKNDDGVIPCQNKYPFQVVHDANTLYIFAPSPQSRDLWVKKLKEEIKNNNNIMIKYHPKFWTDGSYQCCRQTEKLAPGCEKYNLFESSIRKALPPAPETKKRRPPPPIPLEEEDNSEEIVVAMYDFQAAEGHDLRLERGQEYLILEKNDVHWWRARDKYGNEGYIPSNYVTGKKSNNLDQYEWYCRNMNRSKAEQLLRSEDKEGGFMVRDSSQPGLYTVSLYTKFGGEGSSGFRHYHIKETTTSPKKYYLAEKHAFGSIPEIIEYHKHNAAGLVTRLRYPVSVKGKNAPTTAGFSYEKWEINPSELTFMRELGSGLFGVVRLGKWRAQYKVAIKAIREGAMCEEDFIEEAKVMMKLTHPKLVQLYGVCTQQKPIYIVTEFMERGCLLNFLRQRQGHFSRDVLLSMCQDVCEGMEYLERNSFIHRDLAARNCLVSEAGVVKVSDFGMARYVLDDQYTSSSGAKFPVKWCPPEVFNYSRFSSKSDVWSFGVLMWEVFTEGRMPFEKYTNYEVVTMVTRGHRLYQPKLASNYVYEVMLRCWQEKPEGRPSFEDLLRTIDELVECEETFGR
JAK3 kinase, sequence (P52333 whole entry): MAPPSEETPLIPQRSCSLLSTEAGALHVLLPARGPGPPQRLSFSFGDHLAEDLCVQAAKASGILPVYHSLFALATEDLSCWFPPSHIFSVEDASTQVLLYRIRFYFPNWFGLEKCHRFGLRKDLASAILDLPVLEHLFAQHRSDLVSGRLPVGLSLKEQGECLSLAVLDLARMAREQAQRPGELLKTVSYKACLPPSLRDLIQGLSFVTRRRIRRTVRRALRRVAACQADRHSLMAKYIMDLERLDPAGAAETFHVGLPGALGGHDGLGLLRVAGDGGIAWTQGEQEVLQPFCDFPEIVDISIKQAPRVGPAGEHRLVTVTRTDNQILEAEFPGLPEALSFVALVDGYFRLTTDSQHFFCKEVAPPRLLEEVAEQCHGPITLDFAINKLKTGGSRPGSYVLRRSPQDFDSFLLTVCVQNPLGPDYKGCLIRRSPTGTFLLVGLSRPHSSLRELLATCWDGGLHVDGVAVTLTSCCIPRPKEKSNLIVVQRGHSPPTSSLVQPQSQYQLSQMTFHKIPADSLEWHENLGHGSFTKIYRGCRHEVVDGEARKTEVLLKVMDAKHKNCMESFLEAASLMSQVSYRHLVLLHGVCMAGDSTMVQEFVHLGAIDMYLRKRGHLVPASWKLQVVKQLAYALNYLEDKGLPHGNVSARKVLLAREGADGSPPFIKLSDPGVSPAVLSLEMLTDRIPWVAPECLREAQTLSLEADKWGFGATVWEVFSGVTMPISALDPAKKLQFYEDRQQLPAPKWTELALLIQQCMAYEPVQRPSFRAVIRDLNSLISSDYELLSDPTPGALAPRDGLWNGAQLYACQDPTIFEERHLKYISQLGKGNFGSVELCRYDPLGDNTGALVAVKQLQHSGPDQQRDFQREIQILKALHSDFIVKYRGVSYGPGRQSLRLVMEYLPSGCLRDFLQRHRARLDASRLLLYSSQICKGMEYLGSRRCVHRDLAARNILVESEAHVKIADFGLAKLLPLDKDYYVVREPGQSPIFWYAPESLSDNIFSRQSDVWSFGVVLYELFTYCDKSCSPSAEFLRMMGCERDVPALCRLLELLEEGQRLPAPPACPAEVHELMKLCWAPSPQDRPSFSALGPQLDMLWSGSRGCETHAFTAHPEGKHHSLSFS

| IC50 [1] [nM] | modification of BTK by mass spectrometry (BTK) | Compound | also measured |
| --- | --- | --- | --- |
| < 10 | completely modify | C=CC(=O)Nc1cccc(Nc2nc(Nc3ccc(OCCOC)c(F)c3)ncc2F)c1 [Compound I-96, N-(3-(2-(3-fluoro-4-(2-methoxyethoxy)phenylamino)-5-fluoropyrimidin-4-ylamino)phenyl)acrylamide] | >50% occupancy (concentration) (BTK in Ramos cells): A (greater than 1 nM); >90% occupancy (concentration) (BTK in Ramos cells): B (greater than 10 nM) |
| 10 to 100 | completely modify | C=CC(=O)N(C)Cc1ccc(Nc2nc(Nc3ccccc3)ncc2C)cc1 [Compound I-219, N-methyl-N-(4-(5-methyl-2-(phenylamino)pyrimidin-4-ylamino)benzyl)acrylamide] |  |
|  |  | Cc1cnc(Nc2cccc(S(N)(=O)=O)c2)nc1Nc1ccc2c(c1)CCN(C(=O)CCl)C2 [Compound I-11, 3-(4-(2-(2-chloroacetyl)-1,2,3,4-tetrahydroisoquinolin-6-ylamino)-5-methylpyrimidin-2-ylamino)benzenesulfonamide] | modification of JAK3 kinase by mass spectrometry (JAK3 kinase): measurable modification |
| 10 to 100 | completely modify | C=CC(=O)N1CCC[C@@H](Nc2nc(Nc3cccc(OC)c3)ncc2F)C1 [Compound I-195, (R)-1-(3-(5-fluoro-2-(3-methoxyphenylamino)pyrimidin-4-ylamino)piperidin-1-yl)prop-2-en-1-one] |  |
|  | completely modify | C=CC(=O)Nc1cccc(Nc2nc(Nc3ccc(OCCOC)cc3)ncc2F)c1 [Compound I-182, N-(3-(5-fluoro-2-(4-(2-methoxyethoxy)phenylamino)pyrimidin-4-ylamino)phenyl)acrylamide] |  |
|  | completely modify | C=C(C#N)C(O)c1cccc(Nc2nc(Nc3ccc(OCCOC)cc3)ncc2F)c1 (centres unmarked) [Compound I-71, 2-((3-(5-fluoro-2-(4-(2-methoxyethoxy)phenylamino)pyrimidin-4-ylamino)phenyl)(hydroxy)methyl)acrylonitrile] |  |
| 10 to 100 | completely modify | C=CC(=O)N1CCOc2ccc(Nc3ncc(F)c(Nc4cccc(Cl)c4)n3)cc21 [Compound I-149, 1-(6-(4-(3-chlorophenylamino)-5-fluoropyrimidin-2-ylamino)-2H-benzo[b][1,4]oxazin-4(3H)-yl)prop-2-en-1-one] |  |
|  |  | C=CC(=O)Nc1cccc(Nc2ncc(C)c(Nc3cccc(C)c3)n2)c1 [Compound I-2, N-(3-(5-methyl-4-(m-tolylamino)pyrimidin-2-ylamino)phenyl) acrylamide] | BTK Inhibition Type [2]: irreversible; covalent modification of TEC kinase peptide GCLLNFLR by mass spectrometry (TEC kinase): reaction was complete |
|  | completely modify | C=C(C#N)C(O)c1ccc(Nc2nc(Nc3ccccc3)ncc2F)cc1 (centres unmarked) [Compound I-161, 2-((4-(5-fluoro-2-(phenylamino)pyrimidin-4-ylamino)phenyl)(hydroxy)methyl)acrylonitrile] |  |
| 10 to 100 | completely modify | C=CC(=O)Nc1cccc(Nc2nc(Nc3cccc(OC(F)(F)F)c3)ncc2F)c1 [Compound I-244, N-(3-(5-fluoro-2-(3-(trifluoromethoxy)phenylamino)pyrimidin-4-ylamino)phenyl)acrylamide] |  |
| 100 to 1000 | completely modify | CC(C)=CC(=O)c1cccc(Nc2nc(Nc3cccc(OCCN(C)C)c3)ncc2F)c1 [Compound I-207] |  |
| < 10 |  | C#CCOc1cccc(Nc2ncc(C)c(Nc3cccc(NC(=O)C=C)c3)n2)c1 [Compound I-35, N-(3-(5-methyl-2-(3-(prop-2-ynyloxy)phenylamino)pyrimidin-4-ylamino)phenyl) acrylamide] | BTK Inhibition Type [2]: irreversible |
| 10 to 100 |  | Cc1cccc(Nc2nc(Nc3cccc(NC(=O)/C=C/CN(C)C)c3)ncc2F)c1 [Compound I-4, (E)-4-(dimethylamino)-N-(3-(5-fluoro-4-(m-tolylamino)pyrimidin-2-ylamino)phenyl)but-2-enamide] | BTK Inhibition Type [2]: irreversible; covalent modification of TEC kinase peptide GCLLNFLR by mass spectrometry (TEC kinase): reaction was complete |

| Compound | IC50 [1] [nM] | modification of BTK by mass spectrometry (BTK) | also measured |
| --- | --- | --- | --- |
| 2-((4-(5-fluoro-2-(3-trifluoromethoxyphenylamino)pyrimidin-4-ylamino)phenyl)(hydroxy)methyl)acrylonitrile [Compound I-163] |  | completely modify |  |
